Assay results as given in patent US8846947B2, “Benzimidazoles and related analogs as sirtuin modulators” (GlaxoSmithKline LLC, priority 2008, dated 2014).
Like-named read-outs stand apart in the source and are kept apart here.

Biological target: T1, SIRT1 (Homo sapiens, UniProt Q96EB6)
T1 sequence (Q96EB6 1-747): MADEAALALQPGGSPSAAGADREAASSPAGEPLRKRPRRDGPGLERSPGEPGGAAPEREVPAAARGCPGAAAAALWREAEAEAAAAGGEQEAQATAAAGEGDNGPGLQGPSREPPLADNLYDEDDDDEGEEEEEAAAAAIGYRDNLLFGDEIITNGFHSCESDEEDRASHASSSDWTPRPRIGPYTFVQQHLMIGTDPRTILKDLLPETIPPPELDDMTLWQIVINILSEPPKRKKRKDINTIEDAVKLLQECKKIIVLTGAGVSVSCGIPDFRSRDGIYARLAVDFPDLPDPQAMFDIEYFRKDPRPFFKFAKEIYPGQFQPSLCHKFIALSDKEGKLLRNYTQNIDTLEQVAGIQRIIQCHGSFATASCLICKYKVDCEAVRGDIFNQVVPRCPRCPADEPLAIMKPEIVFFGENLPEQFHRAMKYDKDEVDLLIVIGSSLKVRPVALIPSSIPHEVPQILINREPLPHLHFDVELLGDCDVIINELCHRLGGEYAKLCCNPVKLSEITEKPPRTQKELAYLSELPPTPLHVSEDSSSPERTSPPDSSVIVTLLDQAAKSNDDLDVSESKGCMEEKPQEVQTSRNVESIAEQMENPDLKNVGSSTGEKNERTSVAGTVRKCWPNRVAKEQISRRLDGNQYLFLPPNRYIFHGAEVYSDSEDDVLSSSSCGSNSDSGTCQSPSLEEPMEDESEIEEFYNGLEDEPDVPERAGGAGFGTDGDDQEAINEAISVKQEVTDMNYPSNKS
Test: Mass spectrometry based SIRT1 deacetylase activation assay (acetylated p53-derived peptide substrate)
Assay type: biochemical

[1] = 0.5 μM peptide substrate, 120 μM βNAD+, 10 nM SIRT1, 25 minutes at 25° C.
[2] = 0.5 μM peptide substrate, 120 μM βNAD+, 10 nM SIRT1, 25 min at 25° C.
[3] = 0.5 μM peptide substrate, 120 μM βNAD+, 10 nM SIRT1, 25 min at 25° C., read-out: EC1.5

Row | SMILES | EC1.5 | Fold Act. (percent maximum fold activation) | EC1.5 [1] | Fold Act. (percent maximum fold activation) [1] | also measured
1 | Cn1nc(C(F)(F)F)c(-c2nc3c(C(=O)Nc4ccccn4)cccc3[nH]2)c1Cl [Compound 327] | A (EC1.5<1.0 uM) | A (Fold activation >200%) | – | – | –
2 | O=C1COc2ccc(-c3nc4c(C(=O)Nc5cccnc5)cccc4[nH]3)cc2N1 [Compound 533] | – | – | – | – | Fold Act. (percent maximum fold activation) [2]: B (Fold Activation <200%); EC1.5 [3]: > 25000 nM
3 | O=C(Nc1nccs1)c1cccc2[nH]c(-c3ccnc(N4CCNCC4)c3)nc12 [Compound 314] | B (EC1.5 1-25 uM) | A (Fold activation >200%) | – | – | –
4 | N#Cc1cccc(-c2nc3c(C(=O)Nc4nccs4)cccc3[nH]2)c1 [Compound 211] | B (EC1.5 1-25 uM) | A (Fold activation >200%) | – | – | –
5 | O=C(Nc1nccs1)c1cccc2[nH]c(-c3ccncc3)nc12 [Compound 237] | B (EC1.5 1-25 uM) | B (Fold Activation <200%) | – | – | –
6 | O=C(NCc1ccccn1)c1cccc2[nH]c(-c3ccccc3C(F)(F)F)nc12 [Compound 420] | – | – | – | – | Fold Act. (percent maximum fold activation) [2]: A (Fold activation >200%); EC1.5 [3]: 1000 to 25000 nM
7 | O=C(Nc1nccs1)c1cccc2[nH]c(-c3ccco3)nc12 [Compound 249] | B (EC1.5 1-25 uM) | A (Fold activation >200%) | – | – | –
8 | O=C(NC1CCOC1=O)c1cccc2[nH]c(-c3cccc(N4CCOCC4)c3)nc12 (stereo not shown) [Compound 397] | B (EC1.5 1-25 uM) | A (Fold activation >200%) | – | – | –
9 | O=C(Nc1nccs1)c1cccc2[nH]c(-c3ccccc3OCCN3CCCC3)nc12 [Compound 482, 2-(2-(2-(pyrrolidin-1-yl)ethoxy)phenyl)-N-(thiazol-2-yl)-1H-benzo[d]imidazole-4-carboxamide] | – | – | – | – | Fold Act. (percent maximum fold activation) [2]: A (Fold activation >200%); EC1.5 [3]: 1000 to 25000 nM
10 | O=C(Nc1cccnc1)c1cccc2[nH]c(-c3ccc(Cl)cc3C(F)(F)F)nc12 [Compound 312] | A (EC1.5<1.0 uM) | A (Fold activation >200%) | – | – | –
11 | O=C(Nc1cccc(OC2CCNCC2)c1)c1cccc2[nH]c(-c3cc(F)ccc3C(F)(F)F)nc12 [Compound 525] | – | – | – | – | Fold Act. (percent maximum fold activation) [2]: A (Fold activation >200%); EC1.5 [3]: < 1000 nM
12 | O=C(NC1CCOCC1)c1cccc2[nH]c(-c3ccc(F)cc3C(F)(F)F)nc12 [Compound 436] | – | – | – | – | Fold Act. (percent maximum fold activation) [2]: B (Fold Activation <200%); EC1.5 [3]: 1000 to 25000 nM
13 | Cc1cc(NC(=O)c2cccc3[nH]c(-c4cccc(N5CCOCC5)c4)nc23)n(C)n1 [Compound 399] | – | – | – | – | Fold Act. (percent maximum fold activation) [2]: A (Fold activation >200%); EC1.5 [3]: < 1000 nM
14 | O=C(Nc1cccnc1)c1cccc2[nH]c(-c3cccc(CN4CCOCC4)c3)nc12 [Compound 350] | B (EC1.5 1-25 uM) | A (Fold activation >200%) | – | – | –
15 | CS(=O)(=O)c1cc(Cl)ccc1-c1nc2c(C(=O)Nc3ccccn3)cccc2[nH]1 [Compound 522] | – | – | – | – | Fold Act. (percent maximum fold activation) [2]: A (Fold activation >200%); EC1.5 [3]: < 1000 nM
16 | CS(=O)(=O)c1ccc(-c2nc3c(C(=O)Nc4cccnc4)cccc3[nH]2)cc1 [Compound 407] | – | – | – | – | Fold Act. (percent maximum fold activation) [2]: B (Fold Activation <200%); EC1.5 [3]: > 25000 nM
17 | O=C(Nc1nccs1)c1cccc2[nH]c(-c3cc(C(F)(F)F)ccc3F)nc12 [Compound 218] | B (EC1.5 1-25 uM) | A (Fold activation >200%) | – | – | –
18 | O=C(Nc1nccs1)c1cccc2[nH]c(-c3ccccc3C(F)(F)F)nc12 [Compound 208, N-(thiazol-2-yl)-2-(2-(trifluoromethyl)phenyl)-1H-benzo[d]imidazole-4-carboxamide] | A (EC1.5<1.0 uM) | A (Fold activation >200%) | – | – | –
19 | Cc1cnc(NC(=O)c2cccc3[nH]c(-c4ccc(Cl)cc4C(F)F)nc23)s1 [Compound 563] | – | – | – | – | Fold Act. (percent maximum fold activation) [2]: A (Fold activation >200%); EC1.5 [3]: < 1000 nM
20 | O=C1COc2ccc(-c3nc4c(C(=O)Nc5nccs5)cccc4[nH]3)cc2N1 [Compound 424] | – | – | – | – | Fold Act. (percent maximum fold activation) [2]: B (Fold Activation <200%); EC1.5 [3]: < 1000 nM
21 | O=C(Nc1ncc(F)s1)c1cccc2[nH]c(-c3ccc(Cl)cc3C(F)(F)F)nc12 [Compound 321] | A (EC1.5<1.0 uM) | A (Fold activation >200%) | – | – | –
22 | O=C(Nc1nccs1)c1cncc2[nH]c(-c3ccccc3C(F)(F)F)nc12 [Compound 341, N-(thiazol-2-yl)-2-(2-(trifluoromethyl)phenyl)-3H-imidazo[4,5-c]pyridine-7-carboxamide] | A (EC1.5<1.0 uM) | A (Fold activation >200%) | – | – | –
23 | O=C(Nc1cccnc1)c1cccc2[nH]c(-c3cccc(-c4nnn[nH]4)c3)nc12 [Compound 362] | A (EC1.5<1.0 uM) | A (Fold activation >200%) | – | – | –
24 | Cc1nc(NC(=O)c2cccc3[nH]c(-c4ccnn4-c4ccccc4)nc23)sc1C [Compound 395] | A (EC1.5<1.0 uM) | A (Fold activation >200%) | – | – | –
25 | Cc1cc(NC(=O)c2cccc3[nH]c(-c4cccc(N5CCOCC5)c4)nc23)no1 [Compound 469] | – | – | – | – | Fold Act. (percent maximum fold activation) [2]: A (Fold activation >200%); EC1.5 [3]: 1000 to 25000 nM
26 | CC(C)(C)NCCOc1ccccc1-c1nc2c(C(=O)Nc3nccs3)cccc2[nH]1 [Compound 580] | – | – | – | – | Fold Act. (percent maximum fold activation) [2]: A (Fold activation >200%); EC1.5 [3]: 1000 to 25000 nM

Second part, led by results:

Row | EC1.5 | Fold Act. (percent maximum fold activation) | EC1.5 [1] | Fold Act. (percent maximum fold activation) [1] | SMILES | also measured
27 | – | – | A (EC1.5<1.0 uM) | A (Fold activation >200%) | O=C(Nc1ccc(CN2CCCC2)cc1)c1cccc2[nH]c(-c3ccc(F)cc3C(F)(F)F)nc12 [Compound 813] | –
28 | – | – | C (EC1.5 >25 uM) | B (Fold Activation <200%) | O=C(Nc1nc(CN2CCOCC2)cs1)c1cccc2[nH]c(-c3cccnc3)nc12 [Compound 795] | –
29 | – | – | A (EC1.5<1.0 uM) | A (Fold activation >200%) | O=C(Nc1ccccn1)c1cccc2[nH]c(-c3ccc(CN4CCCC4)cc3C(F)(F)F)nc12 [Compound 838, N-(pyridin-2-yl)-2-(4-(pyrrolidin-1-ylmethyl)-2-(trifluoromethyl)phenyl)-1H-benzo[d]imidazole-4-carboxamide] | –
30 | – | – | A (EC1.5<1.0 uM) | A (Fold activation >200%) | O=C(Nc1ccncn1)c1cncc2[nH]c(-c3ccc(N4CCCC4)cc3C(F)F)nc12 [Compound 803] | –
31 | – | – | A (EC1.5<1.0 uM) | A (Fold activation >200%) | O=C(Nc1nccs1)c1cc(N2CCOCC2)cc2[nH]c(-c3cc(F)ccc3C(F)(F)F)nc12 [Compound 644] | –
32 | – | – | A (EC1.5<1.0 uM) | A (Fold activation >200%) | O=C(Nc1nccs1)c1cc(F)cc2nc(-c3ccccc3C(F)F)[nH]c12 [Compound 832] | –
33 | – | – | A (EC1.5<1.0 uM) | A (Fold activation >200%) | Cc1cc(-c2nc3c(C(=O)Nc4nc(CN5CCOCC5)cs4)cccc3[nH]2)ccn1 [Compound 844] | –
34 | – | – | A (EC1.5<1.0 uM) | A (Fold activation >200%) | O=C(Nc1cccc(OC[C@H](O)CO)c1)c1cncc2[nH]c(-c3ccccc3C(F)(F)F)nc12 [Compound 748] | –
35 | – | – | A (EC1.5<1.0 uM) | A (Fold activation >200%) | O=C(Nc1ccccn1)c1cccc2[nH]c(-c3cc(CN4CCCC4)ccc3C(F)(F)F)nc12 [Compound 872, N-(pyridin-2-yl)-2-(5-(pyrrolidin-1-ylmethyl)-2-(trifluoromethyl)phenyl)-1H-benzo[d]imidazole-4-carboxamide] | –
36 | – | – | A (EC1.5<1.0 uM) | A (Fold activation >200%) | O=C(Nc1cccnc1)c1cc(N2CCOCC2)cc2[nH]c(-c3ccc(Cl)cc3C(F)(F)F)nc12 [Compound 642] | –
37 | – | – | A (EC1.5<1.0 uM) | A (Fold activation >200%) | O=C(Nc1cccnn1)c1cccc2[nH]c(-c3ccc(N4CCCC4)cc3C(F)F)nc12 [Compound 775] | –
38 | – | – | A (EC1.5<1.0 uM) | A (Fold activation >200%) | O=C(Nc1ccccn1)c1cncc2[nH]c(-c3ccc(Cl)cc3C(F)(F)F)nc12 [Compound 649] | –
39 | – | – | A (EC1.5<1.0 uM) | A (Fold activation >200%) | Cc1cnc(NC(=O)c2cc(F)cc3nc(-c4cc(F)ccc4C(F)F)[nH]c23)s1 [Compound 836] | –
40 | – | – | A (EC1.5<1.0 uM) | A (Fold activation >200%) | O=C(Nc1cccnn1)c1cc(N2CCOCC2)cc2[nH]c(-c3ccccc3C(F)F)nc12 [Compound 737] | –
41 | – | – | A (EC1.5<1.0 uM) | A (Fold activation >200%) | O=C(Nc1ccc(CN2CCCC2)nc1)c1cccc2[nH]c(-c3cc(F)ccc3C(F)(F)F)nc12 [Compound 687] | –
